Laboratory results: ChEMBL document CHEMBL1150413, “A series of potent and selective, triazolylphenyl-based histone deacetylases inhibitors with activity against pancreatic cancer cells and Plasmodium falciparum” (J Med Chem, 2008)

Key:
[1] = biological target: Histone deacetylase 2 (Homo sapiens, UniProt Q92769)
[2] = biological target: Histone deacetylase 3 (Homo sapiens, UniProt O15379)
[3] = Selectivity for HDAC10 over HDAC1
[4] = system: BXPC-3; test: Cytotoxicity against human BxPC3 cells after 72 hrs by MTT assay; type: functional, cell-based; details: BXPC-3, 72 h
[5] = Cytotoxicity against human Hup T3 cells after 72 hrs by MTT assay; type: functional, cell-based; details: HuP-T3, 72 h
[6] = system: MIA PaCa-2; test: Cytotoxicity against human Mia Paca2 cells after 72 hrs by MTT assay; type: functional, cell-based; details: MIA PaCa-2, 72 h
[7] = Cytotoxicity against human Panc 04.03 cells after 72 hrs by MTT assay; type: functional, cell-based; details: Panc 04.03, 72 h
[8] = Cytotoxicity against human SU 86.86 cells after 72 hrs by MTT assay; type: functional, cell-based; details: SU.86.86, 72 h
[9] = Cytotoxicity against nontransformed human microvascular epithelial cells; type: ADME, cell-based; details: Endothelial cell
[10] = Cytotoxicity against human HPDE6c7 cells; type: ADME, cell-based
[11] = system: Plasmodium falciparum; test: Antimalarial activity against Plasmodium falciparum D6 by hypoxanthine uptake; type: functional, organism-based
[12] = system: Plasmodium falciparum; test: Antimalarial activity against Plasmodium falciparum W2 by hypoxanthine uptake; type: functional, organism-based
[13] = system: Plasmodium falciparum; test: Antimalarial activity against Plasmodium falciparum TM90C2A by hypoxanthine uptake; type: functional, organism-based
[14] = biological target: Histone deacetylase 1 (Homo sapiens, UniProt Q13547)
[15] = biological target: T1, Histone deacetylase 8 (Homo sapiens, UniProt Q9BY41)
T1 sequence (Q9BY41 whole entry): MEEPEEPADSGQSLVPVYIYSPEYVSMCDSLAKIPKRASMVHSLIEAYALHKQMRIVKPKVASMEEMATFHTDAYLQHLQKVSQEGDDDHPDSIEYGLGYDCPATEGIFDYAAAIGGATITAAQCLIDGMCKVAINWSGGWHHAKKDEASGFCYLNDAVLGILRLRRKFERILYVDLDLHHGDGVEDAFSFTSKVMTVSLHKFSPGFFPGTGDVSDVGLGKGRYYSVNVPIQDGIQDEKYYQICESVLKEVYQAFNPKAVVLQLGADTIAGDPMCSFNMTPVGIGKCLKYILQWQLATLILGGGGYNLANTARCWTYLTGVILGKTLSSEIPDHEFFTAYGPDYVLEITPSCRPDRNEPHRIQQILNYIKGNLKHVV

[16] = biological target: T2, Polyamine deacetylase HDAC10 (Homo sapiens, UniProt Q969S8)
T2 sequence (Q969S8 whole entry): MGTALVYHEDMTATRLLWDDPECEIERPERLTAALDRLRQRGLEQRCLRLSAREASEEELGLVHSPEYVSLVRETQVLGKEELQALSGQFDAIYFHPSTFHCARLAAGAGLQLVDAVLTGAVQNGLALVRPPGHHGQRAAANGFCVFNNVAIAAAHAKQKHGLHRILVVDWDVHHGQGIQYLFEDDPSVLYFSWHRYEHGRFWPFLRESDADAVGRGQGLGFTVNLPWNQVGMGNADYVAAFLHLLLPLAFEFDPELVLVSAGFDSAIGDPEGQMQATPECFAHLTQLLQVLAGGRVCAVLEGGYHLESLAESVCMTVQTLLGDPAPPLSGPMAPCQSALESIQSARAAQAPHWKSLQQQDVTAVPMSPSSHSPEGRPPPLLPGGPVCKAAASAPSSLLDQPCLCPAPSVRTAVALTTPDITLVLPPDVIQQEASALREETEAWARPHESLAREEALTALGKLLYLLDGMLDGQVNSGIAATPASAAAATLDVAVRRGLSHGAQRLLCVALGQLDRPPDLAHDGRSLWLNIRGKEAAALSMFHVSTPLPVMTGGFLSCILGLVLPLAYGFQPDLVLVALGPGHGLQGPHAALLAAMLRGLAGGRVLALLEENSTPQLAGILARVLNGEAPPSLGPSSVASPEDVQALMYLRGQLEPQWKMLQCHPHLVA

[17] = biological target: T3, Protein deacetylase HDAC6 (Homo sapiens, UniProt Q9UBN7)
T3 sequence (Q9UBN7 whole entry): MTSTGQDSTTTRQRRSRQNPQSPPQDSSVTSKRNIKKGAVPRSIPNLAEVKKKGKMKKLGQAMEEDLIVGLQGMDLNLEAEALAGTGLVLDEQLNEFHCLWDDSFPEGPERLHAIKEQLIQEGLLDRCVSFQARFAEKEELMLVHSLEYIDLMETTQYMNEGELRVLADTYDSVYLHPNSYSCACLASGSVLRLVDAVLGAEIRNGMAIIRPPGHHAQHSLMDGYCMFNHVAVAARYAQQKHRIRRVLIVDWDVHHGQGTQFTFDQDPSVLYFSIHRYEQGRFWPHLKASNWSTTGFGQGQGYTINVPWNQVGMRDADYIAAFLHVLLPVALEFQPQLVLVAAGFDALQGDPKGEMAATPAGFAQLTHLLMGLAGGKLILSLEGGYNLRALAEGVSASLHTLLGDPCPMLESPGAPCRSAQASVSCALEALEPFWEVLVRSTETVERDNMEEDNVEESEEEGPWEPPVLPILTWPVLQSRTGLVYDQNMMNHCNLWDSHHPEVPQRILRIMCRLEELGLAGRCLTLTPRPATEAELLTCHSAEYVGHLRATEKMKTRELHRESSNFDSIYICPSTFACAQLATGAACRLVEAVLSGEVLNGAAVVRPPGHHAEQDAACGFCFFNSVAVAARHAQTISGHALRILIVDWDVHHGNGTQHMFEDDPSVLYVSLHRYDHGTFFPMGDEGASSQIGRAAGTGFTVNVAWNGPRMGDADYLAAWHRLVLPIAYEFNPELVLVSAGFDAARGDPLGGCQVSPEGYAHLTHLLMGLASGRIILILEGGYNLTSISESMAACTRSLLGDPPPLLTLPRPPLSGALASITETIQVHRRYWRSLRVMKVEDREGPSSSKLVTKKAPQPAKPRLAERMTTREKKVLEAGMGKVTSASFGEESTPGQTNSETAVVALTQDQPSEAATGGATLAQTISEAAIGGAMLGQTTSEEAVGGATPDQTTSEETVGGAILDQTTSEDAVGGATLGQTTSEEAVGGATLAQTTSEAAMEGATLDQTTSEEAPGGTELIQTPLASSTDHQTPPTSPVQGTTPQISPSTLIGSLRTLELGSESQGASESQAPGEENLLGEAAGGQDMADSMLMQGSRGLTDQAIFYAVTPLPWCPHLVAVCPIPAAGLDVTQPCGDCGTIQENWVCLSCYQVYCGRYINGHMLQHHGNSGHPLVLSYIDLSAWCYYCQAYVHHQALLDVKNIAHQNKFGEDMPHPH

[18] = system: Plasmodium falciparum; test: microbe, parasite or virus in culture; details: TM91C235
Description: Antimalarial activity against Plasmodium falciparum TM91C235 by hypoxanthine uptake

Histone deacetylase 3, sequence (O15379 whole entry): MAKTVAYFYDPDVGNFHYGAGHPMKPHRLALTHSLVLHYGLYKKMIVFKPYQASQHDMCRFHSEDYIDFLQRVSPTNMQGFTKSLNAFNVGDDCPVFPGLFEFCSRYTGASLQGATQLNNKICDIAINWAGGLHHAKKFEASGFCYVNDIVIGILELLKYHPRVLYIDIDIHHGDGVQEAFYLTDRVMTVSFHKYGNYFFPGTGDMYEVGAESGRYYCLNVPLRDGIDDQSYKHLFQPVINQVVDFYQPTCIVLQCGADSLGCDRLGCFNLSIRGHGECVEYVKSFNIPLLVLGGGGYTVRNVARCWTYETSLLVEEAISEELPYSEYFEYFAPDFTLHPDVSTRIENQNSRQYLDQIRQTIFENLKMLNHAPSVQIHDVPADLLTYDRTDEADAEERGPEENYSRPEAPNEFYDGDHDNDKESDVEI
Histone deacetylase 2, sequence (Q92769 whole entry): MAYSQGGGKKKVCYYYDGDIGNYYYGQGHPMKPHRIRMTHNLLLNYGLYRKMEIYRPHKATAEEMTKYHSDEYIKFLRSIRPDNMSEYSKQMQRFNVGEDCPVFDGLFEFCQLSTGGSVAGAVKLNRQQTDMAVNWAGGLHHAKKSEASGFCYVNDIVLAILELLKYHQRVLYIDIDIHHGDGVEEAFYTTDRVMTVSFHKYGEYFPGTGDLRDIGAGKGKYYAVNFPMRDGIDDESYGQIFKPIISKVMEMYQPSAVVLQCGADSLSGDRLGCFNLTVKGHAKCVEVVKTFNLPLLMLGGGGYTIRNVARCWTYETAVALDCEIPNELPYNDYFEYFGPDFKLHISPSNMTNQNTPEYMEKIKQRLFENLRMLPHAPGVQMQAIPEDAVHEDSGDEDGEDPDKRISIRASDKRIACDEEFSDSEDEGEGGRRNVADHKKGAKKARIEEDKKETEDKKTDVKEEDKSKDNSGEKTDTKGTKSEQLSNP
Histone deacetylase 1, sequence (Q13547 whole entry): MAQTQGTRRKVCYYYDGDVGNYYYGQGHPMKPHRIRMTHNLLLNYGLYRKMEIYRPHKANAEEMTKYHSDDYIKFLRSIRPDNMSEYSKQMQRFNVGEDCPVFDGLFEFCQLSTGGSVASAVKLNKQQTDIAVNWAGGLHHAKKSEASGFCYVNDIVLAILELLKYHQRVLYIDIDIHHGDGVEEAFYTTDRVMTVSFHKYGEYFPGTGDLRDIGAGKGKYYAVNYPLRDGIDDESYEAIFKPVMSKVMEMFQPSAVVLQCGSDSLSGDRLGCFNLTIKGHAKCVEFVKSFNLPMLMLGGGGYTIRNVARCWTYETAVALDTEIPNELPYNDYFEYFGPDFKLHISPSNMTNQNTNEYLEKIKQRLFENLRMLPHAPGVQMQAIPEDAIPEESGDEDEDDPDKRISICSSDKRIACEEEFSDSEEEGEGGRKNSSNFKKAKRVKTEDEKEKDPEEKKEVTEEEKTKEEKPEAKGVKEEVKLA

| IC50 [1] [nM] | IC50 [2] [nM] | Ratio IC50 [3] | IC50 [11] [nM] | IC50 [12] [nM] | IC50 [13] [nM] | IC50 [14] [nM] | IC50 [15] [nM] | IC50 [16] [nM] | IC50 [17] [nM] | IC50 [18] [nM] | SMILES | IC50 [4] [nM] | IC50 [5] [nM] | IC50 [6] [nM] | IC50 [7] [nM] | IC50 [8] [nM] | IC50 [9] [nM] | IC50 [10] [nM] |
| --- | --- | --- | --- | --- | --- | --- | --- | --- | --- | --- | --- | --- | --- | --- | --- | --- | --- | --- |
| 77.4 | 4 | 0.5 | 180 | 350 | 110 | 17.6 | 552 | 34.3 | 2.6 | 280 | O=C(CCCCCCC(=O)Nc1cccc(-c2cn(Cc3ccc(F)cc3)nn2)c1)NO | 1000 | 1000 | 300 | 1000 | 1000 | < 1000 | 500 |
| 63.9 | – | – | 17 | 32 | 17 | 18 | 2780 | 27.7 | 9.6 | 35 | O=C(CCCCCCC(=O)Nc1cccc(-c2cn(-c3ccccc3)nn2)c1)NO | – | – | – | < 500 | – | < 1000 | < 200 |
| 47.5 | 8 | 0.8 | – | – | – | 27.1 | 1970 | 36.1 | 1.3 | – | O=C(CCCCCCC(=O)Nc1ccc(-c2cn(-c3ccccc3)nn2)cc1)NO | 3000 | 1000 | 400 | 1000 | 1000 | 1000 | 1000 |

| SMILES | IC50 [1] [nM] | IC50 [2] [nM] | Ratio IC50 [3] | IC50 [11] [nM] | IC50 [12] [nM] | IC50 [13] [nM] | IC50 [14] [nM] | IC50 [15] [nM] | IC50 [16] [nM] | IC50 [17] [nM] | IC50 [18] [nM] | IC50 [4] [nM] | IC50 [5] [nM] | IC50 [6] [nM] | IC50 [7] [nM] | IC50 [8] [nM] | IC50 [9] [nM] | IC50 [10] [nM] |
| --- | --- | --- | --- | --- | --- | --- | --- | --- | --- | --- | --- | --- | --- | --- | --- | --- | --- | --- |
| O=C(CCCCCCC(=O)Nc1ccc(-c2cnnn2Cc2ccc(F)cc2)cc1)NO | 57.4 | 16.4 | 0.8 | 240 | 460 | 120 | 52.4 | 2010 | 64.7 | 7.3 | 290 | 11000 | 4000 | 8000 | 2000 | 10000 | – | – |
